EP2114888B1, “TRICYCLIC COMPOUNDS AND THEIR USE AS GLUCOCORTICOID RECEPTOR MODULATORS” (priority 2007, dated 2008)
Counter-ions that a name gives are not always drawn.

How the values were obtained:
[1] = system: IL-6; assay: IL-1β-stimulated IL-6 production in A549 lung epithelial cells; format: cell-based, Human; conditions: A549 cells; Prednisolone (1 µM) = 100% inhibition control
Experimental: Human A549 lung epithelial cells (American Type Culture Collection, Rockville, MD) were cultured in Kaighn's F-12K medium with penicillin-streptomycin (10 U/mL) and 10% heat-inactivated fetal bovine serum (all from Invitrogen, Grand Island, NY). A549 cells were plated at a density of 30,000 cells/well in 96-well plates and incubated overnight at 37°C and with 5% CO2. The cells were serum-starved by replacing the growth medium with serum-free Kaighn's F-12K medium with penicillin-streptomycin (10 U/mL) and, again, incubating overnight at 37°C and with 5% CO2. On the third day, the medium was replaced with fresh serum-free medium and the cells were incubated with or without compound (vehicle was DMSO at 0.1 % maximum concentration) for approximately 1 hour and then stimulated with 1 ng/mL recombinant human IL-1β (R&D Systems, Minneapolis, MN) for 20 hours at 37°C and with 5% CO2. Cell supernatants were collected for determination of IL-6 levels using MSD (Meso Scale Discovery, Gaithersburg, MD) 96-well Single Spot plates as per the manufacturer's instructions. Plates were read with an MSD Sector Imager 6000. […] Percent inhibition for each compound concentration, relative to these controls, was calculated using Excel (Microsoft, Redmond, WA). IC50 values were generated using GraFit 5.0 data analysis software (Erithacus Software Ltd., Surrey, UK).

[2] = system: TNFα; assay: LPS-stimulated TNFα production in differentiated U937 cells; format: cell-based, Human; conditions: for TNFα % Inhibition: U937 cells
Experimental: Human U937 pre-monocytic cells (American Type Culture Collection, Rockville, MD) were cultured in RPMI 1640 with glutamine (2 mM), penicillin-streptomycin (10 U/mL) and 10% heat-inactivated fetal bovine serum (all from Invitrogen, Grand Island, NY). Cells were differentiated to a monocyte/macrophage phenotype with phorbol 12-myristate 13-acetate (Sigma-Aldrich, St. Louis, MO), 20 ng/mL, overnight. The cells were then centrifuged, the medium aspirated, the cells resuspended in an equal volume of fresh RPMI 1640 medium with glutamine and penicillin-streptomycin and fetal bovine serum as listed above, and incubated for 48 hours at 37°C and with 5% CO2. Following recovery, the cells were scraped, counted, and plated in accordance to the experimental design prior to stimulation with LPS, as described below.
U937 cells were differentiated and plated at a density of 200,000 cells/well in 96-well plates. Cells were incubated with or without compound (vehicle was DMSO at 1% maximum concentration) for approximately one hour and then stimulated with 100 ng/mL lipopolysaccharide (LPS), E. coli serotype 0111:B4 (Sigma-Aldrich, St. Louis, MO) for four hours at 37°C and with 5% CO2. Cell supernatants were collected for determination of TNFα levels using an in-house sandwich-type ELISA. Mouse anti-human TNFα monoclonal antibody (clone 28401.111) and biotinylated goat anti-human TNFα (R&D Systems, Minneapolis, MN) were used as the capture and detection antibodies, respectively. Streptavidin-horseradish peroxidase (HRP) (R&D Systems, Minneapolis, MN) and K-Blue Substrate/Red Stop (Neogen, Lexington, KY) were used as the detection system. Absorbance was measured at 650 nm. TNFα concentrations were interpolated from a human TNFα recombinant protein (R&D Systems, Minneapolis, MN) standard curve using a four parameter logistics model by Magellan 4.11 data analysis software (Tecan, Durham, NC). […] Vehicle was used to define the 0% inhibition control. Percent inhibition for each concentration of compound, relative to these controls, was calculated using Excel (Microsoft, Redmond, WA). IC50 values were generated using LabStats Fit Curve V4.R7.MO data analysis software (Pfizer Sandwich Laboratories, UK and Tessella Support Services plc, Abingdon UK).

[3] = system: TNFα; assay: LPS-induced serum TNFα suppression, 28-day repeat dose mouse model; format: in vivo, Swiss Webster female mice; conditions: for TNFα Suppression (ED80 dose): oral gavage, 28 days, LPS-induced serum TNFα
Experimental: (§1) The compounds were weighed and suspended in a vehicle of 0.5% methylcellulose/0.025% tween 20 (Sigma-Aldrich, St. Louis, MO). Compound suspensions were homogenized using a Polytron PT-3100 tissue homogenizer to create a very fine suspension and were then sonicated for 10 minutes using a water bath sonicator. Aliquots of each suspension were made for daily dosing at 0.2 ml/dose. Swiss Webster female mice, 10-12 weeks old, 28-29 grams, (Taconic, Germantown, NY) were used in accordance with the guidelines of the Institutional Animal Care and Use Committee and in accordance with NIH guidelines on laboratory animal welfare. Mice were acclimated in the Pfizer animal facility for three to seven days prior to being utilized in a study. […] Each treatment group contained 5-10 mice. To establish a dosing regimen for the studies, a pilot pharmacodynamic time course experiment was conducted to quantify TNFα repression after a single ED80 dose.
(§2) Body weights were measured on the first and last day of each experiment. Blood samples were obtained after three weeks of dosing for a steady-state pharmacokinetic (PK) analysis. To assess compound effects on LPS-induced TNFα, all mice received an intraperitoneal injection of LPS (Salmonella typhosa, L-7895; Sigma-Aldrich, St. Louis,) 2.5 hr after the last dose on day 28. Mice were sacrificed 90 minutes after LPS administration. Serum samples were quantified for osteocalcin and TNFα using the multiplex assays (Linco Research, Inc, St. Charles, MO; Luminex 100, Austin, TX). Samples were diluted 1:20 and the assay was run according to manufacturer's instructions. The osteocalcin standard was purchased separately (Biomedical Technologies Inc., Stoughton, MA). Mice were fasted for 4 hours before serum was collected for TNFα, and osteocalcin levels. For each experiment, outliers were detected by calculating the number of standard deviations from the mean of the group. If the value being examined was more than 2.5 standard deviations from the mean, it was excluded from the rest of the calculations.
(§3) The individual mouse percent inhibition values were fit to a four-parameter logistic model using the dose mean for each group.
(§4) ED50 and ED80 values were obtained for the various endpoints using a four-parameter logistic fit. For compounds which were tested multiple times, ED50 and ED80 values were obtained using four-parameter logistic fits of the combined data from multiple experiments.

[4] = system: Mouse Collagen-induced arthritis (mCIA); assay: Therapeutic mouse collagen-induced arthritis (mCIA) model; format: in vivo, Male DBA/J mice; conditions: for Therapeutic mCIA (ED80 dose): dosing day 34 through day 49
Description: Mouse Collagen-induced arthritis is a commonly used chronic, preclinical model of rheumatoid arthritis in which joint swelling and bone destruction occur following immunization with type II collagen. Reduction of disease incidence and severity has been shown previously to be predictive of disease-modification and signs and symptoms mitigation, respectively, in a clinical setting. In the therapeutic mCIA model, induction of disease incidence and severity was synchronized via LPS stimulation. Male DBA/J mice were immunized with 100 ug of bovine type II collagen (bCII) on day 0. […] Dosing of compounds was initiated in the therapeutic mode on day 34 and continued through day 49. Different treatments were compared by measuring the decrease in incidence (i.e., resolution of disease) and the decrease in severity of paw swelling over time.

[5] = Serum osteocalcin suppression, 28-day repeat dose mouse model; conditions: in vivo, po
Experimental: as §1, §2, §3, §4

[6] = system: osteocalcin; assay: as above; conditions: in vivo, po
Experimental: as §1, §2, §3, §4

[7] = Prednisolone (1 µM) = 100% inhibition control

Structure (SMILES)	IL-6 % Inhibition [1]	TNFα Suppression (ED80 dose) [3]	Therapeutic mCIA (ED80 dose) [4]	further results
Cc1ncccc1CNC(=O)c1ccc2c(c1)CC[C@@H]1C[C@@](O)(CCC(F)(F)F)CC[C@@]21Cc1ccccc1 [Comparator A, (4βS,7S,8αR)-4β-benzyl-7-hydroxy-N-((2-methylpyridin-3-yl)methyl)-7-(3,3,3-trifluoropropyl)-4β,5,6,7,8,8α,9,10-octahydrophenanthrene-2-carboxamide, reference compound]	59.9%	–	–	TNFα % Inhibition [2, 7]: 35%
Cc1cnc(NC(=O)c2ccc3c(c2)CC[C@@H]2C[C@@](O)(C(F)(F)F)CC[C@@]32Cc2ccccc2)c(C)n1 [Comparator B, (4βS,7R,8αR)-4β-benzyl-N-(3,5-dimethylpyrazin-2-yl)-7-hydroxy-7-(trifluoromethyl)-4α,5,6,7,8,8α,9,10-octahydrophenanthrene-2-carboxamide]	75.8%	2.91 mg/kg	>10 mg/kg	–
Cc1ncccc1NC(=O)c1ccc2c(c1)CC[C@@H]1C[C@@](O)(CCC(F)(F)F)CC[C@@]21Cc1ccccc1 [Comparator C, (4βS,7S,8αR)-4β-benzyl-7-hydroxy-N-(2-methylpyridin-3-yl)-7-(3,3,3-trifluoropropyl)-4β,5,6,7,8,8α,9,10-octahydrophenanthrene-2-carboxamide]	82.6%	1.33 mg/kg	>10 mg/kg	–
Cc1ccncc1NC(=O)c1ccc2c(c1)CC[C@@H]1C[C@@](O)(C(F)(F)F)CC[C@@]21Cc1ccccc1 [Comparator D, (4βS,7R,8αR)-4β-benzyl-7-hydroxy-N-(4-methylpyridin-3-yl)-7-(trifluoromethyl)-4,5,6,7,8,8α,9,10-octahydrophenanthrene-2-carboxamide]	79.8%	>20 mg/kg	–	–
Cc1ncccc1NC(=O)c1ccc2c(c1)C(=O)C[C@@H]1C[C@@](O)(C(F)(F)F)CC[C@@]21Cc1ccccc1 [Comparator E, (4βS,7R,8αS)-4β-benzyl-7-hydroxy-N-(2-methylpyridin-3-yl)-10-oxo-7-(trifluoromethyl)-4α,5,6,7,8,8α,9,10-octahydrophenanthrene-2-carboxamide]	79.7%	1.18 mg/kg	2.6 mg/kg	–
Cc1ncccc1NC(=O)c1ccc2c(c1)[C@H](O)C[C@@H]1C[C@@](O)(C(F)(F)F)CC[C@@]21Cc1ccccc1 [Comparator F, (4βS,7R,8αR,10R)-4β-benzyl-7,10-dihydroxy-N-(2-methylpyridin-3-yl)-7-(trifluoromethyl)-4β,5,6,7,8,8α,9,10-octahydrophenanthrene-2-carboxamide]	83.3%	5.67 mg/kg	>10 mg/kg	–
Cc1ncccc1NC(=O)c1ccc2c(c1)CC[C@@H]1C[C@@](O)(C(F)F)CC[C@@]21Cc1ccccc1 [Comparator H, (4βS,7R,8αR)-4β-benzyl-7-(difluoromethyl)-7-hydroxy-N-(2-methylpyridin-3-yl)-4α,5,6,7,8,8α,9,10-octahydrophenanthrene-2-carboxamide]	64.9%	0.72 mg/kg	–	–
Cc1ncccc1NC(=O)c1ccc2c(c1)C=C[C@@H]1C[C@@](O)(C(F)(F)F)CC[C@@]21Cc1ccccc1 [Comparator I, (4βS,7R,8αS)-4β-benzyl-7-hydroxy-N-(2-methylpyridin-3-yl)-7-(trifluoromethyl)-4β,5,6,7,8,8α-hexahydrophenanthrene-2-carboxamide]	67.5%	5.45 mg/kg	>20 mg/kg	–
Cc1ncc(NC(=O)c2ccc3c(c2)CC[C@@H]2C[C@@](O)(CCC(F)(F)F)CC[C@@]32Cc2ccccc2)c(C)n1 [Comparator J, (4βS,7S,8αR)-4β-benzyl-N-(2,4-dimethylpyrimidin-5-yl)-7-hydroxy-7-(3,3,3-trifluoropropyl)-4β,5,6,7,8,8α,9,10-octahydrophenanthrene-2-carboxamide]	55%	0.79 mg/kg	>20 mg/kg	–
Cc1ncccc1NC(=O)c1ccc2c(c1)CC[C@@H]1C[C@@](O)(C(F)(F)F)CC[C@@]21Cc1ccccc1 [Example 1 HCL salt, (4βS,7R,8αR)-4β-benzyl-7-hydroxy-N-(2-methylpyridin-3-yl)-7-(trifluoromethyl)-4β,5,6,7,8,8α,9,10-octahydrophenanthrene-2-carboxamide]	76.9%	–	–	TNFα % Inhibition [2, 7]: 77.1%; TNFα % Inhibition ([2]; additional result (footnote a)): 62%
C[C@]12C=CC(=O)C=C1CC[C@@H]1[C@@H]2[C@@H](O)C[C@@]2(C)[C@H]1CC[C@]2(O)C(=O)CO [Prednisolone, reference compound]	–	–	–	ED50 [5]: 1 mg/kg; Osteocalcin Suppression (ED80 dose) [6]: 6.80 mg/kg; inhibition at 1 µM ([2]; Homo sapiens, U-937, read-out: TNFα % Inhibition): 100%; ED80 ([3]; Mus musculus, po, 672 h, read-out: TNFα Suppression (ED80 dose)): 2.1 mg/kg; ED80 ([4]; Mus musculus, read-out: Therapeutic mCIA (ED80 dose)): 5.5 mg/kg
